Measured values published in US9120774B2 (University of Kansas, priority 2009, dated 2015).
Where two headings read alike, the source gives them in different places. Each block holds one compound with its values, some of them ahead of it.

Key:
[1] = tested on: MCF-7 (estrogen receptor positive breast cancer cells); experiment: Anti-proliferation activity against MCF-7 cells (MTS/PMS); format: cell-based
Protocol: (§1) Upon completion of synthesis of library of compounds in Examples 23 and 24, the compounds were evaluated for anti-proliferative activity against SkBr3 (Her2 overexpressing breast cancer cells), MCF-7 (estrogen receptor positive breast cancer cells), HCT-116 (colon cancer cells characterized by wild-type p53), PL45 (pancreatic cancer cells), LNCaP (androgen sensitive prostate cancer cells) and PC-3 (androgen independent prostate cancer cells) cell lines.
(§2) Cells were maintained in a 1:1 mixture of Advanced DMEM/F12 (Gibco) supplemented with non-essential amino acids, L-glutamine (2 mM), streptomycin (500 ng/mL), penicillin (100 units/mL), and 10% FBS. Cells were grown to confluence in a humidified atmosphere (37° C., 5% CO2), seeded (2000/well, 100 μl) in 96-well plates, and allowed to attach overnight. Compound or GDA at varying concentrations in DMSO (1% DMSO final concentration) was added, and cells were returned to the incubator for 72 hours. At 72 hours, the number of viable cells was determined using an MTS/PMS cell proliferation kit (Promega) per the manufacturer's instructions. Cells incubated in 1% DMSO were used at 100% proliferation, and values were adjusted accordingly. IC50 values were calculated from separate experiments performed in triplicate using GraphPad Prism.
as §2, with “μg/mL),” for “ng/mL),”, “μL)” for “μl)”

[2] = tested on: SkBr3 (Her2 overexpressing breast cancer cells); experiment: Anti-proliferation activity against SkBr3 cells (MTS/PMS); format: cell-based; details: read-out: IC50, SKBr3
Protocol: as §1, §2
as §2, with “μg/mL),” for “ng/mL),”, “μL)” for “μl)”

[3] = Homo sapiens, MCF7, Table 18, modified furanose or pyranose noviose replacements, read-out: IC50, MCF7
[4] = Homo sapiens, SK-BR-3, Table 18, modified furanose or pyranose noviose replacements
[5] = Table 19, 7-oxyalkylamino and 7-oxypiperidinyl analogues
[6] = Table 19, 7-oxyalkylamino and 7-oxypiperidinyl analogues, read-out: IC50, MCF-7
[7] = Homo sapiens, SK-BR-3, Table 19, 7-oxyalkylamino and 7-oxypiperidinyl analogues
[8] = Homo sapiens, MCF7, Table 19, 7-oxyalkylamino and 7-oxypiperidinyl analogues, read-out: IC50, MCF-7
[9] = Homo sapiens, MCF7, Table 21, substituted indole-2-carboxamide analogues with noviose replacements, read-out: IC50, MCF-7
[10] = Homo sapiens, SK-BR-3, Table 21, substituted indole-2-carboxamide analogues with noviose replacements

IC50 [2, 7]: 1090 ± 100 nM
SMILES: CC(C)=CCc1cc(C(=O)Nc2cc3ccc(OC4CCN(C)CC4)c(C)c3oc2=O)ccc1O [31a, KU-398, 4-Hydroxy-N-(8-methyl-7-(1-methylpiperidin-4-yloxy)-2-oxo-2H-chromen-3-yl)-3-(3-methylbut-2-enyl)benzamide]

IC50 [1, 8]: 470 ± 100 nM | IC50 [2, 7]: 850 ± 90 nM
SMILES: CC(C)=CCc1cc(C(=O)Nc2cc3ccc(OC4CCNCC4)c(C)c3oc2=O)ccc1O [31b, KU-416, 4-Hydroxy-N-(8-methyl-2-oxo-7-(piperidin-4-yloxy)-2H-chromen-3-yl)-3-(3-methylbut-2-enyl)benzamide]

IC50 [1, 8]: 4690 ± 160 nM | IC50 [2, 7]: 10100 ± 170 nM
SMILES: CC(C)=CCc1cc(C(=O)Nc2cc3ccc(OC4CCCN(C)C4)c(C)c3oc2=O)ccc1O (stereo not shown) [31c, KU-418, 4-Hydroxy-N-(8-methyl-7-(1-methylpiperidin-3-yloxy)-2-oxo-2H-chromen-3-yl)-3-(3-methylbut-2-enyl)benzamide]

IC50 [1, 8]: 790 ± 110 nM | IC50 [2, 7]: 2110 ± 580 nM
SMILES: CC(C)=CCc1cc(C(=O)Nc2cc3ccc(OC4CCCNC4)c(C)c3oc2=O)ccc1O (stereo not shown) [31d, KU-420, 4-Hydroxy-N-(8-methyl-2-oxo-7-(piperidin-3-yloxy)-2H-chromen-3-yl)-3-(3-methylbut-2-enyl)benzamide]

IC50 [1, 8]: 9450 ± 220 nM | IC50 [2, 7]: 52700 nM
SMILES: CC(C)=CCc1cc(C(=O)Nc2cc3ccc(OCCN(C)C)c(C)c3oc2=O)ccc1O [31e, KU-422, N-(7-(2-(Dimethylamino)ethoxy)-8-methyl-2-oxo-2H-chromen-3-yl)-4-hydroxy-3-(3-methylbut-2-enyl)benzamide]

IC50 [1, 8]: 440 ± 20 nM | IC50 [2, 7]: 1350 ± 380 nM
SMILES: CC(C)=CCc1cc(C(=O)Nc2cc3ccc(OCCCN(C)C)c(C)c3oc2=O)ccc1O [31f, KU-407, N-(7-(3-(Dimethylamino)propoxy)-8-methyl-2-oxo-2H-chromen-3-yl)-4-hydroxy-3-(3-methylbut-2-enyl)benzamide]

IC50 [1, 8]: 750 ± 120 nM | IC50 [2, 7]: 1330 ± 10 nM
SMILES: CNCCOc1ccc2cc(NC(=O)c3ccc(O)c(CC=C(C)C)c3)c(=O)oc2c1C [31g, KU-424, 4-Hydroxy-N-(8-methyl-7-(2-(methylamino)ethoxy)-2-oxo-2H-chromen-3-yl)-3-(3-methylbut-2-enyl)benzamide]

IC50 [1, 9]: 90 ± 30 nM | IC50 [2, 10]: 350 ± 210 nM
SMILES: Cc1c(OC2CCN(C)CC2)ccc2cc(NC(=O)c3cc4cc(Cl)ccc4[nH]3)c(=O)oc12 [KU-380]

IC50 [1, 9]: 4950 ± 450 nM | IC50 [2, 10]: 510 ± 110 nM
SMILES: COc1cc2cc(NC(=O)c3cc4cc(Cl)ccc4[nH]3)c(=O)oc2c(C)c1OC1CCN(C)CC1 [KU-386]

IC50 [1, 9]: 1540 ± 150 nM | IC50 [2, 10]: 500 ± 10 nM
SMILES: COc1cc2cc(NC(=O)c3cc4cc(Cl)ccc4[nH]3)c(=O)oc2c(C)c1OCCCN(C)C [KU-395]

IC50 [1, 8]: 23 nM | IC50 [2, 7]: 510 nM
SMILES: CC(C)=CCc1cc(C(=O)Nc2cc3ccc(OC4CCN(C)CC4)c(C)c3oc2=O)ccc1OCCN(C)C [KU-456]

IC50 [1, 8]: 90 nM | IC50 [2, 7]: 350 ± 80 nM
SMILES: CC(C)=CCc1cc(C(=O)Nc2cc3ccc(OC4CCN(C)CC4)c(C)c3oc2=O)ccc1OCCCN(C)C [KU-457]

Second part, the compound before the results:

SMILES: CC(C)=CCc1cc(C(=O)Nc2cc3ccc(O[C@H]4OCC[C@@H](O)[C@H]4O)c(C)c3oc2=O)ccc1O [16a, KU-425, N-(7-((2R,3R,4R)-3,4-dihydroxytetrahydro-2H-pyran-2-yloxy)-8-methyl-2-oxo-2H-chromen-3-yl)-4-hydroxy-3-(3-methylbut-2-enyl)benzamide]
IC50 [1, 3]: 10040 ± 30 nM | IC50 [2, 4]: 10680 ± 50 nM

SMILES: CC(C)=CCc1cc(C(=O)Nc2cc3ccc(O[C@@H]4OCC[C@@H](O)[C@H]4O)c(C)c3oc2=O)ccc1O [16b, KU-426, N-(7-((2S,3R,4R)-3,4-dihydroxytetrahydro-2H-pyran-2-yloxy)-8-methyl-2-oxo-2H-chromen-3-yl)-4-hydroxy-3-(3-methylbut-2-enyl)benzamide]
IC50 [1, 3]: 13300 ± 210 nM | IC50 [2, 4]: 6960 ± 60 nM

SMILES: CC(C)=CCc1cc(C(=O)Nc2cc3ccc(O[C@H]4OCCC[C@H]4O)c(C)c3oc2=O)ccc1O [17a, KU-427, 4-Hydroxy-N-(7-((2R,3R)-3-hydroxytetrahydro-2H-pyran-2-yloxy)-8-methyl-2-oxo-2H-chromen-3-yl)-3-(3-methylbut-2-enyl)benzamide]
IC50 [1, 3]: 6450 ± 130 nM | IC50 [2, 4]: 7870 ± 40 nM

SMILES: CC(C)=CCc1cc(C(=O)Nc2cc3ccc(O[C@@H]4OCCC[C@H]4O)c(C)c3oc2=O)ccc1O [17b, KU-428, 4-Hydroxy-N-(7-((2S,3R)-3-hydroxytetrahydro-2H-pyran-2-yloxy)-8-methyl-2-oxo-2H-chromen-3-yl)-3-(3-methylbut-2-enyl)benzamide]
IC50 [1, 3]: 10200 ± 210 nM | IC50 [2, 4]: 30000 ± 2070 nM

SMILES: CC(C)=CCc1cc(C(=O)Nc2cc3ccc(O[C@H]4C[C@H](O)CCO4)c(C)c3oc2=O)ccc1O [18a, KU-429, 4-Hydroxy-N-(7-((2S,4R)-4-hydroxytetrahydro-2H-pyran-2-yloxy)-8-methyl-2-oxo-2H-chromen-3-yl)-3-(3-methylbut-2-enyl)benzamide]
IC50 [1, 3]: 1340 ± 180 nM | IC50 [2, 4]: 5070 ± 230 nM

SMILES: CC(=O)Oc1ccc(C(=O)Nc2cc3ccc(O[C@@H]4OC[C@H](O)[C@@H]4O)c(C)c3oc2=O)cc1CC=C(C)C [19, KU-431, 4-(7-((2S,3S,4S)-3,4-Dihydroxytetrahydrofuran-2-yloxy)-8-methyl-2-oxo-2H-chromen-3-ylcarbamoyl)-2-(3-methylbut-2-enyl)phenyl acetate]
IC50 [1, 3]: 14300 ± 400 nM | IC50 [2, 4]: 14400 ± 520 nM

SMILES: CC(=O)Oc1ccc(C(=O)Nc2cc3ccc(O[C@H]4C[C@@H](O)CO4)c(C)c3oc2=O)cc1CC=C(C)C [20a, KU-432, 4-(7-((2S,4R)-4-Hydroxytetrahydrofuran-2-yloxy)-8-methyl-2-oxo-2H-chromen-3-ylcarbamoyl)-2-(3-methylbut-2-enyl)phenyl acetate]
IC50 [1, 3]: > 100000 nM | IC50 [2, 4]: 22200 ± 940 nM

SMILES: CC(=O)Oc1ccc(C(=O)Nc2cc3ccc(O[C@@H]4C[C@@H](O)CO4)c(C)c3oc2=O)cc1CC=C(C)C [20b, KU-433, 4-(7-((2R,4R)-4-Hydroxytetrahydrofuran-2-yloxy)-8-methyl-2-oxo-2H-chromen-3-ylcarbamoyl)-2-(3-methylbut-2-enyl)phenyl acetate]
IC50 [1, 3]: 22500 ± 400 nM | IC50 [2, 4]: 21500 ± 2280 nM

SMILES: CC(=O)Oc1ccc(C(=O)Nc2cc3ccc(OC4CCN(C)CC4)c(C)c3oc2=O)cc1CC=C(C)C [29a, KU-397, 4-(8-Methyl-7-(1-methylpiperidin-4-yloxy)-2-oxo-2H-chromen-3-ylcarbamoyl)-2-(3-methylbut-2-enyl)phenyl acetate]
IC50 [2, 5]: 1180 ± 200 nM

SMILES: CC(=O)Oc1ccc(C(=O)Nc2cc3ccc(OC4CCCN(C)C4)c(C)c3oc2=O)cc1CC=C(C)C (stereo not shown) [29c, KU-417, 4-(8-Methyl-7-(1-methylpiperidin-3-yloxy)-2-oxo-2H-chromen-3-ylcarbamoyl)-2-(3-methylbut-2-enyl)phenyl acetate]
IC50 [1, 6]: 1420 ± 20 nM | IC50 [2, 5]: 1570 ± 50 nM

SMILES: CC(=O)Oc1ccc(C(=O)Nc2cc3ccc(OCCN(C)C)c(C)c3oc2=O)cc1CC=C(C)C [29e, KU-421, 4-(7-(2-(Dimethylamino)ethoxy)-8-methyl-2-oxo-2H-chromen-3-ylcarbamoyl)-2-(3-methylbut-2-enyl)phenyl acetate]
IC50 [1, 6]: 1320 nM | IC50 [2, 5]: 4760 ± 520 nM

SMILES: CC(=O)Oc1ccc(C(=O)Nc2cc3ccc(OCCCN(C)C)c(C)c3oc2=O)cc1CC=C(C)C [29f, KU-406, 4-(7-(3-(Dimethylamino)propoxy)-8-methyl-2-oxo-2H-chromen-3-ylcarbamoyl)-2-(3-methylbut-2-enyl)phenyl acetate]
IC50 [1, 6]: 460 ± 190 nM | IC50 [2, 5]: 1180 ± 30 nM

SMILES: CC(=O)Oc1ccc(C(=O)Nc2cc3ccc(OC4CCNCC4)c(C)c3oc2=O)cc1CC=C(C)C [30b, KU-415, 4-(8-methyl-2-oxo-7-(piperidin-4-yloxy)-2H-chromen-3-ylcarbamoyl)-2-(3-methylbut-2-enyl)phenyl acetate]
IC50 [1, 6]: 770 ± 270 nM | IC50 [2, 5]: 1530 ± 140 nM

SMILES: CC(=O)Oc1ccc(C(=O)Nc2cc3ccc(OC4CCCNC4)c(C)c3oc2=O)cc1CC=C(C)C (stereo not shown) [30d, KU-419, 4-(8-methyl-2-oxo-7-(piperidin-3-yloxy)-2H-chromen-3-ylcarbamoyl)-2-(3-methylbut-2-enyl)phenyl acetate]
IC50 [1, 6]: 1230 nM | IC50 [2, 5]: 1540 ± 110 nM

SMILES: CNCCOc1ccc2cc(NC(=O)c3ccc(OC(C)=O)c(CC=C(C)C)c3)c(=O)oc2c1C [30g, KU-423, 4-(8-methyl-7-(2-(methylamino)ethoxy)-2-oxo-2H-chromen-3-ylcarbamoyl)-2-(3-methylbut-2-enyl)phenyl acetate]
IC50 [1, 6]: 910 ± 210 nM | IC50 [2, 5]: 2080 ± 130 nM
